Where “and” joins values, the source holds several entries; their conditions need not be identical. Equal values may be shown once. Read-outs that look alike come from different tables or passages of the source.
Tests used:
eIF1A-RPS10 interaction = target: T1, eIF1A-RPS10 interaction (Homo sapiens, UniProt P46783+P47813); test: Split-Renilla luciferase eIF1A-RPS10 interaction screen, dose-response; assay type: biochemical
T1 construct: made in house; host or cells: E. coli BL21 (PRSFduet); unpurified lysate supernatant
How it was run: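 Expression at 16 °C overnight after 0.5 mM IPTG induction; sonication and centrifugation in TKE buffer; lysate supernatant checked for Renilla activity; compound testing against the eIF1A–RPS10 split-luciferase pair, including fragment-only controls.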

[1] = test system: CUG/GUG vs AUG start codon luciferase reporters in HEK293T cells; test: Near-cognate AUG starting codon fidelity reporter assay (GUG, CUG vs AUG); assay type: cell-based; details: for CUG vs AUG (%): CUG start codon reporter relative to AUG reporter (AUG = 100); for CUG vs AUG (%) / GUG vs AUG (%): single-experiment calculation; for GUG vs AUG (%): GUG start codon reporter relative to AUG reporter (AUG = 100); for average CUG and GUG / average CUG and GUG relative to DMSO / CUG Average / GUG Average: NUG experiment; for CUG Average: CUG vs AUG reporter; for GUG Average: GUG vs AUG reporter; for NUG (Final data, Fig. 1E): average CUG and GUG relative to DMSO, 20 µM overnight; for GUG vs AUG data (%): individual repeat; for GUG vs AUG (%) Average: summary average of repeats, DMSO control average […]
NSP1 = NSP1 (Severe acute respiratory syndrome coronavirus 2, UniProt P0DTD1)
[2] = test system: IRF7 5'UTR firefly luciferase reporter in HEK293T cells; details: for Reference vs IRF7 (Final data, Fig. 1E): 1/Result, relative to DMSO; for LONG (summary - All), normalized to DMSO: Long reporter; for LONG (summary - All), normalized to DMSO / SHORT (summary - All), normalized to DMSO: individual replicates, outliers excluded, DMSO = 1; for average ( long vs short ratio): summary - All;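 for all read-outs here: luciferase signal corrected by a co-transfected GFP reporter for transfection efficiency, read after overnight compound exposure, with Long and Short reporters differing in 5'UTR length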
Procedure: For the effect on ribosomal scanning, we used two firefly luciferase reporter genes that differ in their 5'UTR length (Fig. 1C). […] Cells were transfected with these reporters along with a GFP reporter gene used to normalize transfection efficiency. After an overnight 1Ai or DMSO (vehicle control) exposure, luciferase and GFP expression were measured, and normalized activity was determined.
For the reference vs IRF7 5'UTR luciferase reporter assay, HEK239T cells in a 12-well plate were transfected with the previously described IRF7 5'UTR or reference firefly luciferase reported genes (Sehrawat et al, [2019]) (100 ng/well) together with GFP (20 ng/well) that served as an internal control by CaCl2 transfection. After 6 h, half of the growth medium was replaced with a medium containing the different compounds, reaching a final concentration of 20 µM. Twenty-four hours after transfection, transfection efficiency was evaluated using GFP fluorescence intensity (Cytation 5, ex/em: 470/525). Cells were harvested in 50 µL Reported lysis buffer (RLB) and put on a shaker for 10 min. From each well 5 µL were taken in duplicates and tested by luminometer.

eIF1A = target: T2, eIF1A (Homo sapiens, UniProt P47813); assay type: binding; details: for fluorescence ratio, eIF1A: background-corrected, relative to DMSO or lowest 1Ai concentration, replicate columns; for WT eIF1A IC50: fluorescence binding
T2 construct: His-bdSUMO (cleaved yes); made in house; host or cells: E. coli BL-21

[3] = summary table, read-out: IC50 concentration (µM), IC50 screen
[4] = compound at 10uM (summary head)
[5] = summary table, fluorescence binding assay
[6] = compound at 20uM (summary head)

T1 sequence (P47813 whole entry, one chain of several): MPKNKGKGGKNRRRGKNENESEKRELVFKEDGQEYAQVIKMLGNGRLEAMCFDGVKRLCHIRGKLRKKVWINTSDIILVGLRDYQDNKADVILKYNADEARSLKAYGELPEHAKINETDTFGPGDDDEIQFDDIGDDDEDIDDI
T2 sequence (P47813 whole entry): as the sequence (P47813 whole entry, one chain of several) above

Compound	IC50 (eIF1A-RPS10 interaction; [3]) [µM]	average CUG and GUG [1]	average CUG and GUG relative to DMSO [1]	CUG Average [1]	GUG Average [1]	NUG (Final data, Fig. 1E) [1]	GFP reporter ratio nsp1/gfp, avg (NSP1)	GFP reporter ratio nsp1/gfp, rep 1 (NSP1)	gfp signal, mean of duplicate wells (NSP1)	nsp1 signal, mean of duplicate wells (NSP1)	ratio (nsp1/gfp) (NSP1)	Reference vs IRF7 (Final data, Fig. 1E) ([2]; 20 µM)	fluorescence ratio, eIF1A (eIF1A; 1Ai conc. 0.25 uM)	fluorescence ratio, eIF1A (eIF1A; 1Ai conc. 0.5 uM)	fluorescence ratio, eIF1A (eIF1A; 1Ai conc. 1 uM)	fluorescence ratio, eIF1A (eIF1A; 1Ai conc. 2 uM)	fluorescence ratio, eIF1A (eIF1A; 1Ai conc. 4 uM)	fluorescence ratio, eIF1A (eIF1A; 1Ai conc. 8 uM)	fluorescence ratio, eIF1A (eIF1A; 1Ai conc. 16 uM)	fluorescence ratio, eIF1A (eIF1A; 1Ai conc. 32 uM)	other results
O=c1cc(CN2CCOCC2)occ1OCCCCCSc1ccnc2cc(C(F)(F)F)ccc12 [1Ai-5730]	24	3.9567	0.8773	6.145	1.768	0.877	0.5107	0.524	1636.5	857.5	0.524	1.720	1.04 and 0.9394	1.062 and 0.9801	1.0621 and 0.9646	1.055 and 0.9796	1.077 and 1.03	0.8919 and 0.9326	0.9465 and 0.9064	0.9379 and 0.8516	IC50 (eIF1A-RPS10 interaction; Appendix Table S1, read-out: IC50 from the split RL screen): 30 µM; CUG vs AUG (%) [1, 4]: 9.994%; GUG vs AUG (%) [1, 4]: 3.756%; GUG vs AUG data (%) ([1]; compound at 10uM): 1.66% and 2.32% and 1.73% and 1.38%; GUG vs AUG (%) Average ([1]; compound at 10uM): 1.77%; LONG (summary - All), normalized to DMSO ([2]; 10 µM): 0.65 and 0.52 and 0.40 and 0.70; SHORT (summary - All), normalized to DMSO ([2]; Short reporter, 10 µM): 0.89 and 1.17 and 0.87; Long 5'UTR reporter luciferase activity, normalized to DMSO (=1), single replicates ([2]; compound at 10 µM, left data block (Long), source data of Fig 1C): 0.6956; Short: Normalized to average DMSO ([2]; data section, Short reporter, GFP-corrected, 10 µM, per experiment): 0.892 and 1.021 and 1.1679; average ( long vs short ratio) ([2]; 10 µM): 0.581; fluorescence ratio, eIF1A (eIF1A; 1Ai conc. 64 uM): 0.7437 and 0.7726; WT eIF1A IC50 (eIF1A): No binding; IC50 concentration (µM), WT eIF1A (eIF1A; [5]): No binding
Oc1cc(Cl)ccc1Oc1ccc(Cl)cc1Cl [1Ai-6248]	28	4.51	1	7.441	1.579	1.000	0.4361	0.4445	2505 and 4211.5	1071.5 and 1872	0.428 and 0.444	2.307	0.9384 and 1.064	0.9722 and 1.055	1.006 and 1.027	0.9417 and 1.0128	0.9205 and 0.9547	0.8204 and 0.8224	0.7985 and 0.7888	0.7283 and 0.6891	CUG vs AUG (%) ([1]; compound at 5uM (summary head)): 9.031% and 6.716%; GUG vs AUG (%) ([1]; compound at 5uM (summary head)): 1.808% and 1.909%; GUG vs AUG data (%) ([1]; compound at 5uM): 1.28% and 2.36% and 1.32% and 1.37%; GUG vs AUG (%) Average ([1]; compound at 5uM): 1.58%; GFP reporter ratio nsp1/gfp, rep 2 (NSP1): 0.4277; LONG (summary - All), normalized to DMSO ([2]; 5 µM): 0.82 and 0.51 and 0.33 and 0.43; SHORT (summary - All), normalized to DMSO ([2]; Short reporter, 5 µM): 0.71 and 0.90 and 0.20; average ( long vs short ratio) ([2]; 5 µM): 0.861; fluorescence ratio, eIF1A (eIF1A; 1Ai conc. 64 uM): 0.6123 and 0.5776; fluorescence ratio, eIF1A (eIF1A; 1Ai conc. 256 uM): 0.937 and 1.038; WT eIF1A IC50 (eIF1A): No binding; IC50 concentration (µM), WT eIF1A (eIF1A; [5]): No binding
Cc1cc(-n2c(C)cc(-c3csc(N)n3)c2C)no1 [1Ai-6464]	13	3.765	0.8347	6.092	1.4368	0.835	0.5623	0.5623	2104	1183	0.562	2.824	0.9721 and 0.9575	1.01 and 0.9713	0.9857	0.9155	0.9236 and 0.8848	0.5527 and 0.8172	0.5305 and 0.7368	0.4838 and 0.639	CUG vs AUG (%) [1, 6]: 6.312%; GUG vs AUG (%) [1, 6]: 1.439%; GUG vs AUG data (%) ([1]; compound at 20uM): 1.40% and 1.10% and 1.81% and 1.45%; GUG vs AUG (%) Average ([1]; compound at 20uM): 1.44%; LONG (summary - All), normalized to DMSO ([2]; 20 µM): 0.0351 and 0.33 and 0.45 and 0.34; SHORT (summary - All), normalized to DMSO ([2]; Short reporter, 20 µM): 0.16 and 1.35 and 0.67 and 1.06; average ( long vs short ratio) ([2]; 20 µM): 0.354; fluorescence ratio, eIF1A (eIF1A; 1Ai conc. 64 uM): 0.4268 and 0.4798; fluorescence ratio, eIF1A (eIF1A; 1Ai conc. 256 uM): 0.2524 and 0.2775; IC50 (eIF1A; eIF1A, from the titration data, read-out: IC50 (eIF1A titration block)): 21.2 µM; IC50 (eIF1A; summary table, fluorescence binding assay, read-out: IC50 concentration (µM), WT eIF1A): 21.2 µM

From PMC12216609, “Inhibitors of eIF1A-ribosome interaction unveil uORF-dependent regulation of translation initiation and antitumor and antiviral effects” (The EMBO Journal, 2025)
